Test results reported in ChEMBL document CHEMBL4627344, “Synthesis, biological evaluation and virtual screening of some acridone derivatives as potential anticancer agents” (2020).

Assays:
Format in all cases: functional
OVCAR-3 [1] = test: Antiproliferative activity against human OVCAR3 cells assessed as inhibition of cell growth measured after 48 hrs by SRB assay; details: OVCAR-3, 48 h
MDA-MB-435 [2] = test: Antiproliferative activity against human MDA-MB-435 cells assessed as inhibition of cell growth at 10 uM measured after 48 hrs by SRB assay relative to control; details: MDA-MB-435, 48 h, read-out: GI
SF-295 [3] = test: Antiproliferative activity against human SF295 cells assessed as inhibition of cell growth at 10 uM measured after 48 hrs by SRB assay relative to control; details: SF-295, 48 h, read-out: GI
EKVX = test: Antiproliferative activity against human EKVX cells assessed as inhibition of cell growth measured after 48 hrs by SRB assay
IGROV-1 = test: Antiproliferative activity against human IGROV1 cells assessed as inhibition of cell growth at 10 uM measured after 48 hrs by SRB assay relative to control; details: IGROV-1, 48 h, read-out: GI
SR [4] = test: Antiproliferative activity against human SR cells assessed as inhibition of cell growth at 10 uM measured after 48 hrs by SRB assay relative to control; details: read-out: GI
COLO 205 = test: Antiproliferative activity against human COLO205 cells assessed as inhibition of cell growth at 10 uM measured after 48 hrs by SRB assay relative to control; details: COLO 205, 48 h, read-out: GI
A498 = test: Antiproliferative activity against human A498 cells assessed as inhibition of cell growth measured after 48 hrs by SRB assay; details: A498, 48 h
SNB-75 = test: Antiproliferative activity against human SNB75 cells assessed as inhibition of cell growth at 10 uM measured after 48 hrs by SRB assay relative to control; details: SNB-75, 48 h, read-out: GI
PC-3 = test: Antiproliferative activity against human PC3 cells assessed as inhibition of cell growth measured after 48 hrs by SRB assay; details: PC-3, 48 h
NCI-H460 = test: Antiproliferative activity against human NCI-H460 cells assessed as inhibition of cell growth at 10 uM measured after 48 hrs by SRB assay relative to control; details: NCI-H460, 48 h, read-out: GI
HCT-116 = test: Antiproliferative activity against human HCT116 cells assessed as inhibition of cell growth measured after 48 hrs by SRB assay; details: HCT-116, 48 h
NCI-H322M = test: Antiproliferative activity against human NCI-H322M cells assessed as inhibition of cell growth measured after 48 hrs by SRB assay
ACHN [5] = test: Antiproliferative activity against human ACHN cells assessed as inhibition of cell growth at 10 uM measured after 48 hrs by SRB assay relative to control; details: read-out: GI
KM12 [6] = test: Antiproliferative activity against human KM12 cells assessed as inhibition of cell growth at 10 uM measured after 48 hrs by SRB assay relative to control; details: KM12, 48 h, read-out: GI
SR [7] = test: Antiproliferative activity against human SR cells assessed as inhibition of cell growth measured after 48 hrs by SRB assay
HCT-15 = test: Antiproliferative activity against human HCT15 cells assessed as inhibition of cell growth at 10 uM measured after 48 hrs by SRB assay relative to control; details: HCT-15, 48 h, read-out: GI
U-251 = test: Antiproliferative activity against human U251 cells assessed as inhibition of cell growth at 10 uM measured after 48 hrs by SRB assay relative to control; details: U-251, 48 h, read-out: GI
NCI-H23 = test: Antiproliferative activity against human NCI-H23 cells assessed as inhibition of cell growth measured after 48 hrs by SRB assay; details: NCI-H23, 48 h
OVCAR-3 [8] = test: Antiproliferative activity against human OVCAR3 cells assessed as inhibition of cell growth at 10 uM measured after 48 hrs by SRB assay relative to control; details: OVCAR-3, 48 h, read-out: GI
K562 = test: Antiproliferative activity against human K562 cells assessed as inhibition of cell growth at 10 uM measured after 48 hrs by SRB assay relative to control; details: K562, 48 h, read-out: GI
MOLT-4 = test: Antiproliferative activity against human MOLT4 cells assessed as inhibition of cell growth at 10 uM measured after 48 hrs by SRB assay relative to control; details: MOLT-4, 48 h, read-out: GI
SK-MEL-5 [9] = test: Antiproliferative activity against human SK-MEL-5 cells assessed as inhibition of cell growth at 10 uM measured after 48 hrs by SRB assay relative to control; details: SK-MEL-5, 48 h, read-out: GI
HT-29 = test: Antiproliferative activity against human HT-29 cells assessed as inhibition of cell growth at 10 uM measured after 48 hrs by SRB assay relative to control; details: HT-29, 48 h, read-out: GI
SF-295 [10] = test: Antiproliferative activity against human SF295 cells assessed as inhibition of cell growth measured after 48 hrs by SRB assay; details: SF-295, 48 h
KM12 [11] = test: Antiproliferative activity against human KM12 cells assessed as inhibition of cell growth measured after 48 hrs by SRB assay; details: KM12, 48 h
SNB-19 = test: Antiproliferative activity against human SNB19 cells assessed as inhibition of cell growth at 10 uM measured after 48 hrs by SRB assay relative to control; details: SNB-19, 48 h, read-out: GI
HL-60(TB) = test: Antiproliferative activity against human HL-60(TB) cells assessed as inhibition of cell growth measured after 48 hrs by SRB assay; details: HL-60, 48 h
A549 = test: Antiproliferative activity against human A549 cells assessed as inhibition of cell growth at 10 uM measured after 48 hrs by SRB assay relative to control; details: A549, 48 h, read-out: GI
ACHN [12] = test: Antiproliferative activity against human ACHN cells assessed as inhibition of cell growth measured after 48 hrs by SRB assay
MCF7 = test: Antiproliferative activity against human MCF7 cells assessed as inhibition of cell growth measured after 48 hrs by SRB assay; details: MCF7, 48 h
MDA-MB-435 [13] = test: Antiproliferative activity against human MDA-MB-435 cells assessed as inhibition of cell growth measured after 48 hrs by SRB assay; details: MDA-MB-435, 48 h
SK-MEL-5 [14] = test: Antiproliferative activity against human SK-MEL-5 cells assessed as inhibition of cell growth measured after 48 hrs by SRB assay; details: SK-MEL-5, 48 h
DU-145 = test: Antiproliferative activity against human DU145 cells assessed as inhibition of cell growth at 10 uM measured after 48 hrs by SRB assay relative to control; details: DU-145, 48 h, read-out: GI
SK-OV-3 = test: Antiproliferative activity against human SKOV3 cells assessed as inhibition of cell growth measured after 48 hrs by SRB assay; details: SK-OV-3, 48 h
SK-MEL-28 = test: Antiproliferative activity against human SK-MEL-28 cells assessed as inhibition of cell growth measured after 48 hrs by SRB assay; details: SK-MEL-28, 48 h

Compound | GI50 (OVCAR-3 [1]) [nM] | inhibition of growth at 10 µM (MDA-MB-435 [2]) [%] | inhibition of growth at 10 µM (SF-295 [3]) [%] | GI50 (EKVX) [nM] | inhibition of growth at 10 µM (IGROV-1) [%] | inhibition of growth at 10 µM (SR [4]) [%] | inhibition of growth at 10 µM (COLO 205) [%] | GI50 (A498) [nM] | inhibition of growth at 10 µM (SNB-75) [%] | GI50 (PC-3) [nM] | inhibition of growth at 10 µM (NCI-H460) [%] | GI50 (HCT-116) [nM] | GI50 (NCI-H322M) [nM] | inhibition of growth at 10 µM (ACHN [5]) [%] | inhibition of growth at 10 µM (KM12 [6]) [%] | GI50 (SR [7]) [nM] | inhibition of growth at 10 µM (HCT-15) [%] | inhibition of growth at 10 µM (U-251) [%] | GI50 (NCI-H23) [nM] | inhibition of growth at 10 µM (OVCAR-3 [8]) [%] | further results
COc1ccc2nc3c(cc2c1)C(=O)CC(C(F)(F)F)C3 (stereo unspecified) | 1830 | 148 | 54.7 | 4190 | 63.4 | 83.6 | 90.9 | 355 | 92.1 | 835 | 89.5 | 133 | 1320 | 50.8 | 88.4 | 217 | 62.2 | 15.3 | 5150 | 94.7 | inhibition of growth at 10 µM (K562): 83.2%; inhibition of growth at 10 µM (MOLT-4): 84.7%; inhibition of growth at 10 µM (SK-MEL-5 [9]): 68.6%; inhibition of growth at 10 µM (HT-29): 89.1%; GI50 (SF-295 [10]): 853 nM; GI50 (KM12 [11]): 316 nM; inhibition of growth at 10 µM (SNB-19): 49.7%; GI50 (HL-60(TB)): 325 nM; inhibition of growth at 10 µM (A549): 60.7%; GI50 (ACHN [12]): 768 nM; GI50 (MCF7): 3420 nM; GI50 (MDA-MB-435 [13]): 143 nM; GI50 (SK-MEL-5 [14]): 411 nM; inhibition of growth at 10 µM (DU-145): 95.7%
COc1ccc2nc3c(cc2c1)C(=O)CC(c1ccccc1)C3 (stereo unspecified) | 1230 | 168 | 69 | 5920 | 64.2 | 82.3 | 98.1 | 346 | 109 | 715 | 91.2 | 432 | 5780 | 56.1 | 89.2 | 322 | 75.2 | 55 | 6180 | 107 | GI50 (SK-OV-3): 2090 nM; inhibition of growth at 10 µM (K562): 86.8%; inhibition of growth at 10 µM (MOLT-4): 82.2%; inhibition of growth at 10 µM (SK-MEL-5 [9]): 69.8%; inhibition of growth at 10 µM (HT-29): 90%; GI50 (SF-295 [10]): 634 nM; GI50 (KM12 [11]): 450 nM; inhibition of growth at 10 µM (SNB-19): 65.7%; GI50 (HL-60(TB)): 274 nM; inhibition of growth at 10 µM (A549): 65.2%; GI50 (ACHN [12]): 756 nM; GI50 (MCF7): 3490 nM; GI50 (MDA-MB-435 [13]): 137 nM; GI50 (SK-MEL-5 [14]): 540 nM; inhibition of growth at 10 µM (DU-145): 98.9%
O=C1CC(c2ccccc2)Cc2nc3ccc(Br)cc3cc21 (stereo unspecified) | 289 | 140 | 82.8 | 756 | 78 | 86.9 | 136 | 74.5 | 63.4 | 254 | 95.4 | 51.5 | 623 | 65.7 | 91.1 | 56.7 | 84 | 81.9 | 616 | 128 | GI50 (SK-OV-3): 611 nM; inhibition of growth at 10 µM (K562): 93.9%; inhibition of growth at 10 µM (MOLT-4): 89.5%; inhibition of growth at 10 µM (SK-MEL-5 [9]): 97.9%; inhibition of growth at 10 µM (HT-29): 97.8%; GI50 (SF-295 [10]): 206 nM; GI50 (KM12 [11]): 341 nM; inhibition of growth at 10 µM (SNB-19): 72.6%; GI50 (SK-MEL-28): 954 nM; GI50 (HL-60(TB)): 214 nM; inhibition of growth at 10 µM (A549): 76.2%; GI50 (ACHN [12]): 583 nM; GI50 (MCF7): 2760 nM; GI50 (MDA-MB-435 [13]): 27.1 nM; GI50 (SK-MEL-5 [14]): 288 nM; inhibition of growth at 10 µM (DU-145): 103%
O=C1CC(c2ccccc2)Cc2nc3ccc(Cl)cc3cc21 (stereo unspecified) | 302 | 139 | 103 | 607 | 83.5 | 87 | 132 | 87 | 70.3 | 280 | 96.7 | 46.8 | 720 | 69.2 | 98.3 | 53.2 | 86.1 | 81.2 | 517 | 129 | GI50 (SK-OV-3): 845 nM; inhibition of growth at 10 µM (K562): 79.3%; inhibition of growth at 10 µM (MOLT-4): 93.2%; inhibition of growth at 10 µM (SK-MEL-5 [9]): 114%; inhibition of growth at 10 µM (HT-29): 95.6%; GI50 (SF-295 [10]): 196 nM; GI50 (KM12 [11]): 349 nM; inhibition of growth at 10 µM (SNB-19): 75%; GI50 (SK-MEL-28): 1690 nM; GI50 (HL-60(TB)): 211 nM; inhibition of growth at 10 µM (A549): 76.7%; GI50 (ACHN [12]): 508 nM; GI50 (MCF7): 2550 nM; GI50 (MDA-MB-435 [13]): 26.6 nM; GI50 (SK-MEL-5 [14]): 203 nM; inhibition of growth at 10 µM (DU-145): 99.8%
O=C1CC(c2ccccc2)Cc2nc3c(Br)cc(Br)cc3cc21 (stereo unspecified) | 30.2 | 124 | 132 | 391 | 84.8 | 80.5 | 148 | 140 | 64.8 | 66.6 | 97.7 | 47.8 | 74.8 | 70.3 | 98 | 91.3 | 89.7 | 91.4 | 260 | 140 | GI50 (SK-OV-3): 102 nM; inhibition of growth at 10 µM (K562): 86.8%; inhibition of growth at 10 µM (MOLT-4): 79.2%; inhibition of growth at 10 µM (SK-MEL-5 [9]): 118%; inhibition of growth at 10 µM (HT-29): 91.7%; GI50 (SF-295 [10]): 196 nM; GI50 (KM12 [11]): 242 nM; inhibition of growth at 10 µM (SNB-19): 65.2%; GI50 (SK-MEL-28): 478 nM; GI50 (HL-60(TB)): 226 nM; GI50 (ACHN [12]): 595 nM; GI50 (MCF7): 382 nM; GI50 (MDA-MB-435 [13]): 211 nM; GI50 (SK-MEL-5 [14]): 298 nM; inhibition of growth at 10 µM (DU-145): 99%
